Data: patent US5502035A, “N-terminus modified analogs of LHRH” (Tap Holdings Inc., priority 1994, dated 1996)
Non-standard residues stand in square brackets, D forms with d. Residues, ends and D or L forms follow the SMILES beside them. Groups on a side chain read outwards from the residue. *: point of attachment. NMePhe(4-NO2) = CN[C@@H](Cc1ccc([N+](=O)[O-])cc1)C(=O)O; Shikimoyl = O=C(C1=C[C@@H](O)[C@@H](O)[C@H](O)C1)*; Quinoline3carbonyl = O=C(c1cnc2ccccc2c1)*; dPhe(4-Cl) = N[C@H](Cc1ccc(Cl)cc1)C(=O)O; d2Nal = N[C@H](Cc1ccc2ccccc2c1)C(=O)O; NMeY = CN[C@@H](Cc1ccc(O)cc1)C(=O)O; NMeF = CN[C@@H](Cc1ccccc1)C(=O)O; hArg = N=C(N)NCCCC[C@H](N)C(=O)O; d3Pal = N[C@H](Cc1cccnc1)C(=O)O; Nicotinoyl = O=C(c1cccnc1)*; 2Furoyl = O=C(c1ccco1)*; Aze = O=C(O)[C@@H]1CCN1; βAla = NCCC(=O)O

molecular target: T1, LHRH (Rattus norvegicus, UniProt P30969); assay: in vitro test for LHRH antagonist potency (pA2); format: cell-based; details: negative logarithm of the antagonist concentration required to shift the response curve produced by the agonist leuprolide to two-fold higher concentration
T1 construct: endogenous in cells; host or cells: rat pituitary cells (own knowledge of the cited Haviv 1989 method)
T1 sequence (P30969 1-327): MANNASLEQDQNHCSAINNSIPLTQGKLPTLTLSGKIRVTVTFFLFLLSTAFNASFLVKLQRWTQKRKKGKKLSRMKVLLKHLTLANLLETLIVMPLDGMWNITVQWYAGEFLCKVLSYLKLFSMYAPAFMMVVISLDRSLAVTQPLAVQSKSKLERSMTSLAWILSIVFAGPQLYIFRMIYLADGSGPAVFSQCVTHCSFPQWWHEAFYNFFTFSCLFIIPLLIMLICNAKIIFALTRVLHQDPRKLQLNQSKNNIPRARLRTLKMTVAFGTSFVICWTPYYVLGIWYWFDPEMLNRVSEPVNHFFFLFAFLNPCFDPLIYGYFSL
Summary of the method: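 Antagonism read against the agonist leuprolide on rat LHRH receptor; value is pA2, the −log of antagonist concentration that doubles the agonist concentration needed for the same response.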

SMILES	Kb [nM]
CC(C)C[C@H](NC(=O)[C@@H](CCCCNC(=O)C1=C[C@@H](O)[C@@H](O)[C@H](O)C1)NC(=O)[C@H](Cc1ccc(O)cc1)N(C)C(=O)[C@H](CO)NC(=O)[C@@H](Cc1cccnc1)NC(=O)[C@@H](Cc1ccc(Cl)cc1)NC(=O)[C@@H](Cc1ccc2ccccc2c1)NC(=O)CNC(=O)c1cccnc1)C(=O)N[C@@H](CCCNC(=N)N)C(=O)N1CC[C@H]1C(=O)N[C@H](C)C(N)=O [Example 24, N-Nicotinyl-Gly-D2Nal-D4ClPhe-D3Pal-Ser-NMeTyr-DLys(Shikimyl)-Leu-Arg-Aze-DAlaNH2] (Nicotinoyl-G[d2Nal][dPhe(4-Cl)][d3Pal]S[NMeY][dK](Shikimoyl)LR[Aze][dA]-NH2)	0.0282
CC(C)C[C@H](NC(=O)[C@@H](CCCCNC(=O)C1=C[C@@H](O)[C@@H](O)[C@H](O)C1)NC(=O)[C@H](Cc1ccc(O)cc1)N(C)C(=O)[C@H](CO)NC(=O)[C@@H](Cc1cccnc1)NC(=O)[C@@H](Cc1ccc(Cl)cc1)NC(=O)[C@@H](Cc1ccc2ccccc2c1)NC(=O)CNC(=O)c1cccnc1)C(=O)N[C@@H](CCCCNC(=N)N)C(=O)N1CCC[C@H]1C(=O)N[C@H](C)C(N)=O [Example 25a, N-Nicotinyl-Gly-D2Nal-D4ClPhe-D3Pal-Ser-NMeTyr-DLys(Shik)-Leu-Harg-Pro-DAlaNH2] (Nicotinoyl-G[d2Nal][dPhe(4-Cl)][d3Pal]S[NMeY][dK](Shikimoyl)L[hArg]P[dA]-NH2)	0.0141
CC(C)C[C@H](NC(=O)[C@@H](CCCCNC(=O)C1=C[C@@H](O)[C@@H](O)[C@H](O)C1)NC(=O)[C@H](Cc1ccc(O)cc1)N(C)C(=O)[C@H](CO)NC(=O)[C@@H](Cc1cccnc1)NC(=O)[C@@H](Cc1ccc(Cl)cc1)NC(=O)[C@@H](Cc1ccc2ccccc2c1)NC(=O)[C@@H](CO)NC(=O)c1cccnc1)C(=O)N[C@@H](CCCCNC(=N)N)C(=O)N1CCC[C@H]1C(=O)N[C@H](C)C(N)=O [Example 25b, N-Nicotinyl-DSer-D2Nal-D4ClPhe-D3Pal-Ser-NMeTyr-DLys(Shikimyl)-Leu-Harg-Pro-DAlaNH2] (Nicotinoyl-[dS][d2Nal][dPhe(4-Cl)][d3Pal]S[NMeY][dK](Shikimoyl)L[hArg]P[dA]-NH2)	0.00794
CC(C)C[C@H](NC(=O)[C@@H](CCCCNC(=O)C1=C[C@@H](O)[C@@H](O)[C@H](O)C1)NC(=O)[C@H](Cc1ccc(O)cc1)N(C)C(=O)[C@H](CO)NC(=O)[C@@H](Cc1cccnc1)NC(=O)[C@@H](Cc1ccc(Cl)cc1)NC(=O)[C@@H](Cc1ccc2ccccc2c1)NC(=O)CNC(=O)c1ccco1)C(=O)N[C@@H](CCCCNC(=N)N)C(=O)N1CCC[C@H]1C(=O)N[C@H](C)C(N)=O [Example 25c, N-(2-Furoyl)-Gly-D2Nal-D4ClPhe-D3Pal-Ser-NMeTyr-DLys(Shik)-Leu-Harg-Pro-DAlaNH2] (2Furoyl-G[d2Nal][dPhe(4-Cl)][d3Pal]S[NMeY][dK](Shikimoyl)L[hArg]P[dA]-NH2)	0.0017
CC(C)C[C@H](NC(=O)[C@@H](CCCCNC(=O)C1=C[C@@H](O)[C@@H](O)[C@H](O)C1)NC(=O)[C@H](Cc1ccc(O)cc1)N(C)C(=O)[C@H](CO)NC(=O)[C@@H](Cc1cccnc1)NC(=O)[C@@H](Cc1ccc(Cl)cc1)NC(=O)[C@@H](Cc1ccc2ccccc2c1)NC(=O)CNC(=O)C1=C[C@@H](O)[C@@H](O)[C@H](O)C1)C(=O)N[C@@H](CCCCNC(=N)N)C(=O)N1CCC[C@H]1C(=O)N[C@H](C)C(N)=O [Example 25d, N-Shikimyl-Gly-D2Nal-D4ClPhe-D3Pal-Ser-NMeTyr-DLys(Shik)-Leu-Harg-Pro-DAlaNH2] (Shikimoyl-G[d2Nal][dPhe(4-Cl)][d3Pal]S[NMeY][dK](Shikimoyl)L[hArg]P[dA]-NH2)	0.0339
CC(C)C[C@H](NC(=O)[C@@H](CCCCNC(=O)CNC(=O)C1=C[C@@H](O)[C@@H](O)[C@H](O)C1)NC(=O)[C@H](Cc1ccc(O)cc1)N(C)C(=O)[C@H](CO)NC(=O)[C@@H](Cc1cccnc1)NC(=O)[C@@H](Cc1ccc(Cl)cc1)NC(=O)[C@@H](Cc1ccc2ccccc2c1)NC(=O)CNC(=O)c1cccnc1)C(=O)N[C@@H](CCCCNC(=N)N)C(=O)N1CCC[C@H]1C(=O)N[C@H](C)C(N)=O [Example 25e, N-Nicotinyl-Gly-D2Nal-D4ClPhe-D3Pal-Ser-NMeTyr-DLys(Gly-Shik)-Leu-Harg-Pro-DAlaNH2] (Nicotinoyl-G[d2Nal][dPhe(4-Cl)][d3Pal]S[NMeY][dK]([Gly-Shikimoyl])L[hArg]P[dA]-NH2)	0.00339
CC(C)C[C@H](NC(=O)[C@@H](CCCCNC(=O)c1cccnc1)NC(=O)[C@H](Cc1ccc(O)cc1)N(C)C(=O)[C@H](CO)NC(=O)[C@@H](Cc1cccnc1)NC(=O)[C@@H](Cc1ccc(Cl)cc1)NC(=O)[C@@H](Cc1ccc2ccccc2c1)NC(=O)CNC(=O)c1cccnc1)C(=O)N[C@@H](CCCCNC(=N)N)C(=O)N1CCC[C@H]1C(=O)N[C@H](C)C(N)=O [Example 25f, N-Nicotinyl-Gly-D2Nal-D4ClPhe-D3Pal-Ser-NMeTyr-DLys(Nicotinyl)-Leu-Harg-Pro-DAlaNH2] (Nicotinoyl-G[d2Nal][dPhe(4-Cl)][d3Pal]S[NMeY][dK](Nicotinoyl)L[hArg]P[dA]-NH2)	0.0234
CC(C)C[C@H](NC(=O)[C@@H](CCCCNC(=O)C1=C[C@@H](O)[C@@H](O)[C@H](O)C1)NC(=O)[C@H](Cc1ccc(O)cc1)N(C)C(=O)[C@H](CO)NC(=O)[C@@H](Cc1cccnc1)NC(=O)[C@@H](Cc1ccc(Cl)cc1)NC(=O)[C@@H](Cc1ccc2ccccc2c1)NC(=O)CNC(=O)c1cnc2ccccc2c1)C(=O)N[C@@H](CCCCNC(=N)N)C(=O)N1CCC[C@H]1C(=O)N[C@H](C)C(N)=O [Example 25g, N-(3-Quinolinylcarbonyl)-Gly-D2Nal-D4ClPhe-D3Pal-Ser-NMeTyr-DLys(Shikimyl)-Leu-Harg-Pro-DAlaNH2] (Quinoline3carbonyl-G[d2Nal][dPhe(4-Cl)][d3Pal]S[NMeY][dK](Shikimoyl)L[hArg]P[dA]-NH2)	0.0324
CC(C)C[C@H](NC(=O)[C@@H](CCCCNC(=O)C1=C[C@@H](O)[C@@H](O)[C@H](O)C1)NC(=O)[C@H](Cc1ccccc1)N(C)C(=O)[C@H](CO)NC(=O)[C@@H](Cc1cccnc1)NC(=O)[C@@H](Cc1ccc(Cl)cc1)NC(=O)[C@@H](Cc1ccc2ccccc2c1)NC(=O)CNC(=O)c1cccnc1)C(=O)N[C@@H](CCCCNC(=N)N)C(=O)N1CCC[C@H]1C(=O)N[C@H](C)C(N)=O [Example 26a, N-Nicotinyl-Gly-D2Nal-D4ClPhe-D3Pal-Ser-NMePhe-DLys(Shik)-Leu-Harg-Pro-DAlaNH2] (Nicotinoyl-G[d2Nal][dPhe(4-Cl)][d3Pal]S[NMeF][dK](Shikimoyl)L[hArg]P[dA]-NH2)	0.0275
CC(C)C[C@H](NC(=O)[C@@H](CCCCNC(=O)C1=C[C@@H](O)[C@@H](O)[C@H](O)C1)NC(=O)[C@H](Cc1ccc([N+](=O)[O-])cc1)N(C)C(=O)[C@H](CO)NC(=O)[C@@H](Cc1cccnc1)NC(=O)[C@@H](Cc1ccc(Cl)cc1)NC(=O)[C@@H](Cc1ccc2ccccc2c1)NC(=O)CNC(=O)c1cccnc1)C(=O)N[C@@H](CCCCNC(=N)N)C(=O)N1CCC[C@H]1C(=O)N[C@H](C)C(N)=O [Example 26b, N-Nicotinyl-Gly-D2Nal-D4ClPhe-D3Pal-Ser-NMePhe(NO2)-DLys(Shik)-Leu-Harg-Pro-DAlaNH2] (Nicotinoyl-G[d2Nal][dPhe(4-Cl)][d3Pal]S[NMePhe(4-NO2)][dK](Shikimoyl)L[hArg]P[dA]-NH2)	0.0437
CC(C)C[C@H](NC(=O)[C@@H](CCCCNC(=O)c1cccnc1)NC(=O)[C@H](Cc1ccc(O)cc1)N(C)C(=O)[C@H](CO)NC(=O)[C@@H](Cc1cccnc1)NC(=O)[C@@H](Cc1ccc(Cl)cc1)NC(=O)[C@@H](Cc1ccc2ccccc2c1)NC(=O)CNC(=O)c1cccnc1)C(=O)N[C@@H](CCCNC(=N)N)C(=O)N1CCC[C@H]1C(=O)N[C@H](C)C(N)=O [Example 27a, N-Nicotinyl-Gly-D2Nal-D4ClPhe-D3Pal-Ser-NMeTyr-DLys(Nic)-Leu-Arg-Pro-DAlaNH2] (Nicotinoyl-G[d2Nal][dPhe(4-Cl)][d3Pal]S[NMeY][dK](Nicotinoyl)LRP[dA]-NH2)	0.00776
CC(C)C[C@H](NC(=O)[C@@H](CCCCNC(=O)c1cccnc1)NC(=O)[C@H](Cc1ccc(O)cc1)N(C)C(=O)[C@H](CO)NC(=O)[C@@H](Cc1cccnc1)NC(=O)[C@@H](Cc1ccc(Cl)cc1)NC(=O)[C@@H](Cc1ccc2ccccc2c1)NC(=O)CNC(=O)C1=C[C@@H](O)[C@@H](O)[C@H](O)C1)C(=O)N[C@@H](CCCNC(=N)N)C(=O)N1CC[C@H]1C(=O)N[C@H](C)C(N)=O [Example 27c, N-Shikimyl-Gly-D2Nal-D4ClPhe-D3Pal-Ser-NMeTyr-DLys(Nic)-Leu-Arg-Aze-DAlaNH2] (Shikimoyl-G[d2Nal][dPhe(4-Cl)][d3Pal]S[NMeY][dK](Nicotinoyl)LR[Aze][dA]-NH2)	0.0977
CC(C)C[C@H](NC(=O)[C@@H](CCCCNC(=O)C1=C[C@@H](O)[C@@H](O)[C@H](O)C1)NC(=O)[C@H](Cc1ccc(O)cc1)N(C)C(=O)[C@H](CO)NC(=O)[C@@H](Cc1cccnc1)NC(=O)[C@@H](Cc1ccc(Cl)cc1)NC(=O)[C@@H](Cc1ccc2ccccc2c1)NC(=O)CCNC(=O)c1cccnc1)C(=O)N[C@@H](CCCNC(=N)N)C(=O)N1CCC[C@H]1C(=O)N[C@H](C)C(N)=O [Example 27d, N-Nicotinyl-3-Aminopropionyl-D2Nal-D4ClPhe-D3Pal-Ser-NMeTyr-DLys(Shikimyl)-Leu-Arg-Pro-DAlaNH 2] ({Nicotinoyl-βAla}-[d2Nal][dPhe(4-Cl)][d3Pal]S[NMeY][dK](Shikimoyl)LRP[dA]-NH2)	0.00178
